Data: article PMC7404270, “Biological Activities of Cyclic and Acyclic B-Type Laxaphycins in SH-SY5Y Human Neuroblastoma Cells” (Marine Drugs, 2020)
pIC50: −log10 of the molar value. Starred links: 1 amine or outer side, 2 acyl side, 3 side chain; linkers in the order of their positions; H or OH if unused. Non-standard residues stand in square brackets, D forms with d. Residues, ends and D or L forms follow the SMILES beside them. dβ3hGly(nHeptyl) = CCCCCCC[C@H](CC(=O)[*:2])N[*:1]; dAsn(3R-OH) = NC(=O)[C@H](O)[C@@H](N)C(=O)O; dLeu(3S-OH) = CC(C)[C@H](O)[C@@H](N)C(=O)O; Hyp = O=C(O)[C@@H]1C[C@@H](O)CN1; NMeI = CC[C@H](C)[C@H](NC)C(=O)O

Experiments:
[1] = tested on: SH-SY5Y human neuroblastoma cells; test: LDH cytotoxicity assay (cell viability); assay type: cell-based; settings: 24 h, 0.001–10 µM
Procedure: (§1) SH-SY5Y human neuroblastoma cell line was obtained from American Type Culture Collection (ATCC), number CRL2266. Cells were cultured in Dulbecco´s modified Eagle´s medium: Nutrient Mix F-12 (DMEM/F-12) with 10% fetal bovine serum (FBS), 1% glutamax, 100 U/mL penicillin and 100 µg/mL streptomycin. Cells were maintained at 37 °C in a humidified atmosphere of 5% CO2 and 95% air and dissociated weekly using 0.05% trypsin/EDTA. All the reagents were obtained from Thermo Fischer Scientific.
Cell viability was assessed with the LDH test. Cells were seeded in 96-well plates and exposed to different compound concentrations (0.001–10 µM). Cells were incubated with compounds at 37 °C in humidified 5% CO2/95% air atmosphere for 24 h. Quillaja bark saponin was used as cellular death control. Then, cell medium was collected and LDH release was evaluated. Pierce^TM LDH-Cytotoxicity Assay Kit (Thermo Fisher Scientific) was used for LDH determination. Absorbance was measured at 490 nm to determine LDH release to the medium. Experiments were carried out in triplicate at least three independent times.

[2] = tested on: SH-SY5Y human neuroblastoma cells; test: MTT cell metabolic activity assay; assay type: cell-based; settings: 24 h, 0.001–10 µM, absorbance 595 nm, three experiments in triplicate
Procedure: as §1
The effect of laxaphycins on cell metabolic activity was evaluated by MTT (3-(4, 5-dimethyl thiazol-2-yl)-2, 5-diphenyl tetrazolium bromide) assay. SH-SY5Y cells were cultured in 96-well plates and treated with compounds at concentrations ranging from 0.001 to 10 µM for 24 h. Next, cells were rinsed three times and incubated for 1 h with MTT (500 µg/mL) dissolved in saline buffer. MTT excess was washed and cells were disaggregated with 5% sodium dodecyl sulfate. Absorbance of the colored formazan salt was measured at 595 nm in a spectrophotometer plate reader. Cell death control signal was subtracted from the other data.

[3] = tested on: SH-SY5Y human neuroblastoma cells; test: Annexin V-FITC / propidium iodide flow cytometry; assay type: cell-based; settings: 24 h, 1 at 0.3 µM; for Cell survival (flow cytometry): 2 at 0.15 µM (MTT IC50 values); for Apoptotic cells (early and late, Annexin V positive): 2 at 0.15 µM, STS at 0.01 µM, percentage of total cells, mean ± SEM of three experiments
Procedure: The Annexin V-FITC Apoptosis Detection Kit was used to determine the cell death produced by compounds as previously described. SH-SY5Y cells were seeded in 12-well plates at 1 × 10^6 per well and incubated for 24 h with laxaphycins. Then, cells were washed with PBS and resuspended in Annexin binding buffer containing Annexin V-FITC and PI. Cells were incubated for 15 min at room temperature, resuspended in PBS and filtered. The fluorescence was determined by flow cytometry using the ImageStreamMKII (Amnis Corporation, Luminex Corp, Austin, TX, USA). 10,000 events were analyzed with IDEAS Application 6.0 software (Amnis Corporation, Luminex Corp, Austin, TX, USA). STS (Sigma Aldrich) at 0.01 µM was used as control in this assay.

caspase 3 = test: Caspase 3 activity in cell lysates (EnzCheck kit); assay type: cell-based, human; settings: SH-SY5Y cells, 24 h; 1 at 0.3 µM, 2 at 0.15 µM
Procedure: The detection of caspase 3 activity was carried out with the EnzCheck® Caspase-3 Assay Kit. Neuroblastoma cells were cultured in 12-well plates at 1 × 10^6 cells per well and treated with compounds. After 24 h, cells were lysed and an aliquot was collected to quantify protein concentration by the Bradford method. Then, the assay was performed following manufacturer’s instructions. Briefly, 50 µL of each sample were mixed with equal volume of Z-DEVD-AMC substrate and incubated for 30 min at room temperature. Then, fluorescence at 342 nm excitation and 441 nm emission was measured. Caspase 3 activity data were corrected by protein concentration values. STS (0.01 µM) was used as positive control.

mTOR = test: Western blot, mTOR activation (phosphorylated/total); assay type: cell-based, human; settings: SH-SY5Y cells, 24 h; Rap 0.1 µM
Procedure: (§2) SH-SY5Y cells were seeded in 12-well plates and treated with laxaphycins for 24 h. Next, cells were washed with PBS and lysis buffer (50mM Tris HCl, 150 mM NaCl, 1mM EDTA and 1% Triton x-100, supplemented with a complete phosphatase/protease inhibitor cocktail) was added to each well. Cells were scrapped, sonicated and centrifuged at 13,000 rpm at 4 °C for 20 min.
(§3) In both cases, the supernatant was collected as the cytosolic fraction and quantified with the Bradford method. Samples containing 15 µg were used for electrophoresis, resolved in 4–20% sodium dodecyl sulphate polyacrylamide gel (Biorad, Madrid, Spain). Proteins were transferred to PVDF membranes (Merck Millipore) with a Trans-Blot® semi-dry transfer cell (Biorad). Membrane blocking and antibody incubation was performed in Snap i.d. system (Merck Millipore). Protein bands were detected with Supersignal West Pico Luminiscent Substrate and Supersignal West Femto Maximum Sensitivity Substrate (Thermo Fisher Scientific). Chemiluminiscence was determined with Diversity GeneSnap system and software (Syngene). LC3 II/I was detected with the primary antibody anti-LC3 II/I (1:1000, Abcam), the primary antibody anti-pmTOR (Ser2448) (1:1000, Merck Millipore) was used to recognize phospho-mTOR and the total levels of the kinase were determined with anti-mTOR antibody (1:10000, Abcam), beclin-1 was detected with anti-beclin-1 primary antibody (1:1000, Merck Millipore), p62 was quantified with anti-p62 antibody (1:1000, Merck Millipore), anti-phospho-p70 S6 kinase (Thr389) (1:1000, Merck Millipore) was used to detect phospho- p70 and the total levels were quantified using anti-p70 S6 kinase antibody (1:1000, Merck Millipore), anti-phospho-AMPK (Thr172) (1:500, Merck Millipore) was used to recognize the phosphorylated state of the kinase, and the total expression of the enzyme was detected with anti-AMPK antibody (1:500, Merck Millipore). Protein levels were normalized using β-Actin (1:20,000, Millipore). Baf A1 (0.001 µM), Rap (0.1 µM) and Comp C (1 µM) were used as controls for autophagic flux measurements. […]

[4] = tested on: panel of cancer cell lines; settings: read-out: IC50, cytotoxic effects against a panel of cancer cell lines; previous works; cited from earlier work
Excerpt: (§4) Moreover, this study is the first description of the effects on mitochondria and autophagy produced by acyclic B-type laxaphycins, and also confirms that the toxic effects of cyclic laxaphycins B are mediated by an apoptotic process. […] Our results in neuroblastoma cells are in ag ...

[5] = tested on: drug-sensitive and multidrug-resistant tumor cell lines; parameters: method as in PMID 17323939; settings: previous works; read-out: IC50, toxicity towards drug-sensitive and multidrug-resistant tumor cell lines; cited from earlier work
Excerpt: as §4

p70 S6 kinase = test: Western blot, p70 S6 kinase activation (phosphorylated/total); assay type: cell-based, human; settings: SH-SY5Y cells, 24 h; one range given for the three compounds together
Procedure: as §2, §3

Compound | Cytotoxicity / cell viability (LDH test), in words [1] | pIC50 [2] | Cell survival (flow cytometry) [3] | Apoptotic cells (early and late, Annexin V positive) [3] | Increase in caspase 3 activity (caspase 3) | mTOR activation (phospho/total), in words (mTOR) | pIC50 [4] | pIC50 [5] | p70 S6 phosphorylation (p70 S6 kinase)
CCCCCCC[C@@H]1CC(=O)N[C@@H](C(C)C)C(=O)N[C@H]([C@@H](O)C(C)C)C(=O)N[C@@H](C)C(=O)N[C@H]([C@@H](O)C(C)C)C(=O)N[C@@H](CCC(N)=O)C(=O)N(C)[C@@H]([C@@H](C)CC)C(=O)N[C@H]([C@@H](O)C(N)=O)C(=O)N[C@@H]([C@@H](C)O)C(=O)N2CCC[C@H]2C(=O)N[C@H](CC(C)C)C(=O)N[C@@H]([C@@H](C)O)C(=O)N1 [compound 1, laxaphycin B] (cyclo([dβ3hGly(nHeptyl)]V[dLeu(3S-OH)]A[dLeu(3S-OH)]Q[NMeI][dAsn(3R-OH)]TP[dL]T)) | cytotoxic to neuroblastoma cells | 6.52 | around 60 % of control cells | 50.4% ± 4.8% | about 20 % of control cells | did not affect to the protein expression | > 5.70 | ~6.00 | 
CCCCCCC[C@@H]1CC(=O)N[C@@H](C(C)C)C(=O)N[C@H]([C@@H](O)C(C)C)C(=O)N[C@@H](C)C(=O)N[C@H]([C@@H](O)C(C)C)C(=O)N[C@@H](CCC(N)=O)C(=O)N(C)[C@@H]([C@@H](C)CC)C(=O)N[C@H]([C@@H](O)C(N)=O)C(=O)N[C@@H]([C@@H](C)O)C(=O)N2C[C@H](O)C[C@H]2C(=O)N[C@H](CC(C)C)C(=O)N[C@@H]([C@@H](C)O)C(=O)N1 [compound 2, laxaphycin B3] (cyclo([dβ3hGly(nHeptyl)]V[dLeu(3S-OH)]A[dLeu(3S-OH)]Q[NMeI][dAsn(3R-OH)]T[Hyp][dL]T)) | cytotoxic to neuroblastoma cells | 6.82 | around 60 % of control cells | 46.4% ± 4.8% | about 20 % of control cells | did not affect to the protein expression |  | ~6.00 | 53.5%–78.6%
